Patent publication US7265103B2, “Substituted amino isoxazoline derivatives and their use as anti-depressants” (Janssen Pharmaceutica NV., priority 2002, dated 2007)

Assays:
hα2A receptor = biological target: T1, hα2A receptor (Homo sapiens, UniProt P08913); test: Radioligand binding experiment for α2A-adrenergic receptor ([3H]-raulwolscine); details: CHO cell membranes with human α2A receptor, [3H]raulwolscine 1 nM; read-out: pIC50 α2A (converted)
T1 construct: expressed in transfected cells; host or cells: CHO cells
T1 sequence (P08913 1-465): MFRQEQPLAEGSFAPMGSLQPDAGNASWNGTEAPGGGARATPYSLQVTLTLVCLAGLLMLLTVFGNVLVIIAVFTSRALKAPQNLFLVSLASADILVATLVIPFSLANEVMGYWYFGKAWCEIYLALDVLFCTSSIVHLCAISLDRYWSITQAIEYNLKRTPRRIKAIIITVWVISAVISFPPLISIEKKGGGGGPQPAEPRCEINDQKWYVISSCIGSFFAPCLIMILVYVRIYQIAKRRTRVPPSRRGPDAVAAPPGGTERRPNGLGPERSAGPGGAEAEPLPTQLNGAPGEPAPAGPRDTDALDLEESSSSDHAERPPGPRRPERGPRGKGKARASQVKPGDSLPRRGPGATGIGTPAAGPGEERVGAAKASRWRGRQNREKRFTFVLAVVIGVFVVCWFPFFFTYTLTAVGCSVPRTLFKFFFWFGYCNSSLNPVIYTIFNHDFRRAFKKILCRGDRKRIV
Procedure: (§1) The interaction of the compounds of Formula (I) with hα2-receptors and h5-HT-transporters was assessed in in vitro radioligand binding experiments. In general, a low concentration of a radioligand with a high binding affinity for a particular receptor or transporter is incubated with a sample of a tissue preparation enriched in a particular receptor or transporter or with a preparation of cells expressing cloned human receptors in a buffered medium. During the incubation, the radioligand binds to the receptor or transporter. When equilibrium of binding is reached, the receptor bound radioactivity is separated from the non-bound radioactivity, and the receptor- or transporter-bound activity is counted. The interaction of the test compounds with the receptor is assessed in competition binding experiments. Various concentrations of the test compound are added to the incubation mixture containing the receptor- or transporter preparation and the radioligand. The test compound in proportion to its binding affinity and its concentration inhibits binding of the radioligand. The radioligand used for hα2A, hα2B and hα2C receptor binding was [^3H]-raulwolscine and for the h5-HT transporter was [^3H]paroxetine.
(§2) CHO cells, stabile transfected with human adrenergic-α2A-, -α2B or α2C receptor cDNA, were cultured in Dulbecco's Modified Eagle's Medium (DMEM)/Nutrient mixture Ham's F12 (ratio 1:1)(Gibco, Gent-Belgium) supplemented with 10% heat inactivated fetal calf serum (Life Technologies, Merelbeke-Belgium) and antibiotics (100 IU/ml penicillin G, 100 μg/ml streptomycin sulphate, 110 μg/ml pyruvic acid and 100 μg/ml L-glutamine). One day before collection, cells were induced with 5 mM sodiumbutyrate. Upon 80-90% of confluence, cells were scraped in phosphate buffered saline without Ca^2+ and Mg^2+ and collected by centrifugation at 1500×g for 10 min. The cells were homogenised in Tris-HCl 50 mM using an Ultraturrax homogenizer and centrifuged for 10 min at 23,500×g. The pellet was washed once by resuspension and rehomogenization and the final pellet was resuspended in Tris-HCl, divided in 1 ml aliquots and stored at −70° C.
(§3) Membranes were thawed and re-homogenized in incubation buffer (glycylglycine 25 mM, pH 8.0). In a total volume of 500 μl, 2-10 μg protein was incubated with [^3H]raulwolscine (NET-722) (New England Nuclear, USA) (1 nM final concentration) with or without competitor for 60 min at 25° C. followed by rapid filtration over GF/B filter using a Filtermatel 96 harvester (Packard, Meriden, Conn.). Filters were rinsed extensively with ice-cold rinsing buffer (Tris-HCl 50 mM pH 7.4). Filter-bound radioactivity was determined by scintillation counting in a Topcount (Packard, Meriden, Conn.) and results were expressed as counts per minute (cpm). Non-specific binding was determined in the presence of 1 μM oxymetazoline for hα2A- and hα2B receptors and 1 μM spiroxatrine for hα2C receptors.
(§4) Data from assays in the presence of compound were calculated as a percentage of total binding measured in the absence of test compound. Inhibition curves, plotting percent of total binding versus the log value of the concentration of the test compound, were automatically generated, and sigmoidal inhibition curves were fitted using non-linear regression. The pIC50 values of test compounds were derived from individual curves.

hα2C receptor = biological target: T2, hα2C receptor (Homo sapiens, UniProt P18825); test: Radioligand binding experiment for α2C-adrenergic receptor ([3H]-raulwolscine); details: CHO cell membranes with human α2C receptor, [3H]raulwolscine 1 nM; read-out: pIC50 α2C (converted)
T2 construct: expressed in transfected cells; host or cells: CHO cells
T2 sequence (P18825 1-462): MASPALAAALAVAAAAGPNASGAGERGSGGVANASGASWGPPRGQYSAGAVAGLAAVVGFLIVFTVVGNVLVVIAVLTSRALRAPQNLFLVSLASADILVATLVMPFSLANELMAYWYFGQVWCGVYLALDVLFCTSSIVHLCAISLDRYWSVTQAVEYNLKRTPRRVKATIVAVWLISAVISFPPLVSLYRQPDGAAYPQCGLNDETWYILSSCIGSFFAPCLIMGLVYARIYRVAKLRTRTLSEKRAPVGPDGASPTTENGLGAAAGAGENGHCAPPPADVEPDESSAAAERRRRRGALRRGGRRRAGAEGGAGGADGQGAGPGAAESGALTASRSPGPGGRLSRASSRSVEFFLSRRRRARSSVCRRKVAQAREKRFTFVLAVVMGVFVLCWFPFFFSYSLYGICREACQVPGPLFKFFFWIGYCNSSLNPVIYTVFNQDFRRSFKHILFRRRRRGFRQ
Procedure: as §1, §2, §3, §4

h5-HT transporter = biological target: T3, h5-HT transporter (Homo sapiens, UniProt P31645); test: Radioligand binding experiment for 5-HT transporter ([3H]paroxetine); details: human platelet membranes, [3H]paroxetine 0.5 nM
T3 construct: Human platelet membranes (Oceanix Biosciences Corporation, Hanover, Md., USA) were thawed; tissue Oceanix Biosciences Corporation; host or cells: human platelet membranes
Procedure: as §1
Human platelet membranes (Oceanix Biosciences Corporation, Hanover, Md., USA) were thawed, diluted in buffer (Tris-HCl 50 mM, 120 mM NaCl and 5 mM KCl) and quickly (max 3 s) homogenised with an Ultraturrax homogenizer. In a total volume of 250 μL, 50-100 μg protein was incubated with [^3H]paroxetine (NET-869) (New England Nuclear, USA) (0.5 nM final concentration) with or without competitor for 60 min at 25° C. Incubation was stopped by rapid filtration of the incubation mixture over GF/B filters, pre-wetted with 0.1% polyethyleneamine, using a Filtermatel 96 harvester (Packard, Meriden, Conn.). Filters were rinsed extensively with ice-cold buffer and radioactivity on the filters was counted in a Topcount liquid scintillation counter (Packard, Meriden, Conn.). Data were expressed as cpm. Imipramine (at 1 μM final concentration) was used to determine the non-specific binding.
as §4

T3 sequence (P31645 whole entry): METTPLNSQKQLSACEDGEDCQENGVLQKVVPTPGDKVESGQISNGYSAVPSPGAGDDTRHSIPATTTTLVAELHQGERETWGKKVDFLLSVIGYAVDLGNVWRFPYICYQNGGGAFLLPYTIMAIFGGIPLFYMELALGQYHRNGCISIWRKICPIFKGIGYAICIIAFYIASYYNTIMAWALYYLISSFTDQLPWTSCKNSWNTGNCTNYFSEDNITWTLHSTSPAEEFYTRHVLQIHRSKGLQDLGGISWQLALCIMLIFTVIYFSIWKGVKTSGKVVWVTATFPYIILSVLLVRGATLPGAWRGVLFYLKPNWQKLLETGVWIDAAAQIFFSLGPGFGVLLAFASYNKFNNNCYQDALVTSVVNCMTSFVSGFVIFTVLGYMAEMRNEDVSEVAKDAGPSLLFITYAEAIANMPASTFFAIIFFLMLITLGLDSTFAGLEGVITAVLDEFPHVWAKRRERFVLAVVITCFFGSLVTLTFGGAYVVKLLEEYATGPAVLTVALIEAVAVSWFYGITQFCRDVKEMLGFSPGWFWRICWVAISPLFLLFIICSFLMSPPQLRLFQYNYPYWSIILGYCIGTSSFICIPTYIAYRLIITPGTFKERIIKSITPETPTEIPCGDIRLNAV

SMILES | IC50 (hα2A receptor) [nM] | IC50 (hα2C receptor) [nM] | IC50 (h5-HT transporter) [nM]
COc1cc2c(cc1NC(=O)C1CC1)OCC1C2=NOC1CN1CCN(CC(C)=Cc2ccccc2)CC1 (stereo not drawn) [Compound 52] | 3.98 | 0.631 | 20
COc1cc2c(cc1NC(=O)C1CC1)OCC1C2=NOC1CN1CCN(CC(C)=Cc2cccc(F)c2)CC1 (stereo not drawn) [Compound 53] | 3.98 | 0.631 | 10
CC(=Cc1ccccc1)CN1CCN(CC2ON=C3c4ccc(NC(=O)c5ccccc5)cc4OCC32)CC1 (stereo not drawn) [Compound 55] | 5.01 | 3.16 | 25.1
C/C(=C\c1ccccc1)CN1CCN(CC2ON=C3c4ccc(NC(=O)[C@H]5CCCN5)cc4OCC32)CC1 (stereo partly drawn) [Compound 56] | 3.16 | 0.501 | 12.6
C/C(=C\c1ccccc1)CN1CCN(CC2ON=C3c4ccc(NC(=O)[C@@H]5CCCN5)cc4OCC32)CC1 (stereo partly drawn) [Compound 57] | 5.01 | 0.631 | 25.1
CC(=Cc1ccc(F)cc1)CN1CCN(CC2ON=C3c4ccc(NC(=O)OC(C)(C)C)cc4OCC32)CC1 (stereo not drawn) [Compound 58] | 63.1 | 31.6 | 31.6
CCNC(=O)Nc1ccc2c(c1)OCC1C2=NOC1CN1CCN(CC(C)=Cc2ccccc2)CC1 (stereo not drawn) [Compound 59] | 7.94 | 1.26 | 10
CCNC(=O)N(C(=O)NCC)c1ccc2c(c1)OCC1C2=NOC1CN1CCN(CC(C)=Cc2ccc(F)cc2)CC1 (stereo not drawn) [Compound 60] | 3160 | 398 | 6310
CC(=Cc1ccccc1)CN1CCN(CC2ON=C3c4ccc(NC(=O)c5cccnc5)cc4OCC32)CC1 (stereo not drawn) [Compound 67] | 2 | 1.26 | 12.6
CC(=Cc1ccc(F)cc1)CN1CCN(CC2ON=C3c4ccc(N5CCC5=O)cc4OCC32)CC1 (stereo not drawn) [Compound 69] | 3.16 | 1.26 | 20
CC(=Cc1ccc(F)cc1)CN1CCN(CC2ON=C3c4ccc(N5CCc6ccccc6C5)cc4OCC32)CC1 (stereo not drawn) [Compound 73] | 50.1 | 5.01 | 63.1
COc1cc2c(cc1N1CCN(C)CC1)OCC1C2=NOC1CN1CCN(CC(C)=Cc2cccc(F)c2)CC1 (stereo not drawn) [Compound 76] | 3.98 | 0.794 | 3.16
COc1cc2c(cc1N1CCOCC1)OCC1C2=NOC1CN1CCN(CC(C)=Cc2cccc(F)c2)CC1 (stereo not drawn) [Compound 83] | 7.94 | 2.51 | 15.8
COc1cc2c(cc1N1CCOCC1)OCC1C2=NOC1CN1CCN(CC(C)=Cc2ccc(F)cc2)CC1 (stereo not drawn) [Compound 85] | 10 | 3.16 | 63.1
COc1cc2c(cc1N)OCC1C2=NOC1CN1CCN(CC(C)=Cc2cccc(F)c2)CC1 (stereo not drawn) [Compound 86] | 6.31 | 1.58 | 5.01
CNc1ccc2c(c1)OCC1C2=NOC1CN1CCN(CC(C)=Cc2ccccc2)CC1 (stereo not drawn) [Compound 87] | 2.51 | 3.16 | 50.1
CNc1cc2c(cc1OC)C1=NOC(CN3CCN(CC(C)=Cc4ccccc4)CC3)C1CO2 (stereo not drawn) [Compound 88] | 5.01 | 1.26 | 20
COc1cc2c(cc1NCCN)OCC1C2=NOC1CN1CCN(CC(C)=Cc2ccc(F)cc2)CC1 (stereo not drawn) [Compound 97] | 31.6 | 6.31 | 15.8
CCC(CC)Nc1cc2c(cc1OC)C1=NOC(CN3CCN(CC(C)=Cc4ccc(F)cc4)CC3)C1CO2 (stereo not drawn) [Compound 98] | 126 | 100 | 251
CCC(C)Nc1cc2c(cc1OC)C1=NOC(CN3CCN(CC(C)=Cc4ccc(F)cc4)CC3)C1CO2 (stereo not drawn) [Compound 99] | 50.1 | 50.1 | 158

The next lines start with the values.

IC50 (hα2A receptor) [nM] | IC50 (hα2C receptor) [nM] | IC50 (h5-HT transporter) [nM] | SMILES
10 | 5.01 | 10 | COc1cc2c(cc1Nc1ccncc1)OCC1C2=NOC1CN1CCN(CC(C)=Cc2ccc(F)cc2)CC1 (stereo not drawn) [Compound 100]
39.8 | 31.6 | 158 | COc1cc2c(cc1N1CCCC1C)OCC1C2=NOC1CN1CCN(CC(C)=Cc2ccc(F)cc2)CC1 (stereo not drawn) [Compound 101]
20 | 15.8 | 50.1 | COc1cc2c(cc1N1CCC1)OCC1C2=NOC1CN1CCN(CC(C)=Cc2ccc(F)cc2)CC1 (stereo not drawn) [Compound 102]
79.4 | 63.1 | 126 | COc1cc2c(cc1N1CCC(C)CC1)OCC1C2=NOC1CN1CCN(CC(C)=Cc2ccc(F)cc2)CC1 (stereo not drawn) [Compound 103]
126 | 126 | 316 | CCC(C)CNc1cc2c(cc1OC)C1=NOC(CN3CCN(CC(C)=Cc4ccc(F)cc4)CC3)C1CO2 (stereo not drawn) [Compound 104]
50.1 | 31.6 | 20 | CCNc1cc2c(cc1OC)C1=NOC(CN3CCN(CC(C)=Cc4ccc(F)cc4)CC3)C1CO2 (stereo not drawn) [Compound 105]
6.31 | 12.6 | 31.6 | C=CC(=O)Nc1cc2c(cc1OC)C1=NOC(CN3CCN(CC(C)=Cc4ccc(F)cc4)CC3)C1CO2 (stereo not drawn) [Compound 106]
7.94 | 10 | 50.1 | COc1cc2c(cc1N1CCC1=O)OCC1C2=NOC1CN1CCN(CC(C)=Cc2ccc(F)cc2)CC1 (stereo not drawn) [Compound 107]
200 | 50.1 | 79.4 | CC(=Cc1ccc(F)cc1)CN1CCN(CC2ON=C3c4ccc(N(C)CCOC(=O)C5CCC5)cc4OCC32)CC1 (stereo not drawn) [Compound 108]
158 | 31.6 | 39.8 | CC(=Cc1ccc(F)cc1)CN1CCN(CC2ON=C3c4ccc(N(C)CCOC(=O)C5CC5)cc4OCC32)CC1 (stereo not drawn) [Compound 109]
